Data taken from patent US20260325533A1, “CDK INHIBITOR COMPOUNDS” (ALEKSIA THERAPEUTICS, INC., priority 2023, published 2026).
Read-outs that look alike come from different tables or passages of the source.

Legend:
Assay type in all cases: biochemical
CDK2/CCNE1 = CDK2/CCNE1 (Homo sapiens, UniProt P24941); assay: CDK2 homogeneous time-resolved fluorescence (HTRF) kinase assay; settings: CDK2/CCNE
Summary of the method: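 IC50 derived from 11-point, half-log dilutions (usually top 10 μM) of compound, 1% DMSO. Kinase (3 nM CDK2/CCNE1) was preincubated with compound 20 min, then phosphorylated 50 nM ULight-4E-BP1 peptide at 1 mM ATP for 60 min, 23 °C. Europium-antibody TR-FRET read after EDTA stop.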

CDK1/CCNB1 = CDK1/CCNB1 (Homo sapiens, UniProt P06493); assay: CDK1 homogeneous time-resolved fluorescence (HTRF) kinase assay; settings: CDK1/CCNB; x = IC50 >250 nM; read-out: CDK1/CCNB IC50 (>250 nM column)
Chain of CDK1/CCNB1 (P06493 whole entry): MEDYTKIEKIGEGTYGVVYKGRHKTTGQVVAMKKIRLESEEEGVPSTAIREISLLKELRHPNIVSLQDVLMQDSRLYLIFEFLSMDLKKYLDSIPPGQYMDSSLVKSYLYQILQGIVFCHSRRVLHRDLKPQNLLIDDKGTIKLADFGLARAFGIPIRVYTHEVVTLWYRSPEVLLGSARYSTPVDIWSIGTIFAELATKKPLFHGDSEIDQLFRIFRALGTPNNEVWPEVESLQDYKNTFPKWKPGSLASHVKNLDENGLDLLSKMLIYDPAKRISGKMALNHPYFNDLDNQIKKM
Chain of CDK1/CCNB1 (P14635 whole entry partner): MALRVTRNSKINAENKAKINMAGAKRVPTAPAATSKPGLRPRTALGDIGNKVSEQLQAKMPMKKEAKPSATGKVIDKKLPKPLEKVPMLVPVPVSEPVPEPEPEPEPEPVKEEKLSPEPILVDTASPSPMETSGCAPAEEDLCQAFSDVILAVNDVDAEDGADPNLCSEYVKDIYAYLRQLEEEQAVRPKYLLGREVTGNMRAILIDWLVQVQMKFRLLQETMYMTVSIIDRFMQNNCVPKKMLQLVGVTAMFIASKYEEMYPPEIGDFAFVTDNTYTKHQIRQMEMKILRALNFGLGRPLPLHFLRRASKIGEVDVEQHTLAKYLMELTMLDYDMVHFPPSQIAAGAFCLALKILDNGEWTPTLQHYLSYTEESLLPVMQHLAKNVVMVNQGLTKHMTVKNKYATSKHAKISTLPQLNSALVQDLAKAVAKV
Summary of the method: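 CDK1/CCNB1 0.5 nM + cpd, 20 min 23 °C; add 1 mM ATP, 50 nM ULight-4E-BP1 peptide, 60 min 23 °C; stop 10 mM EDTA; 2 nM Eu-Ab, 60 min; HTRF 665 nm. 11-pt half-log, top 10 μM typical; IC50.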

CDK4/CCND3 = CDK4/CCND3 (Homo sapiens, UniProt P11802); assay: CDK4 homogeneous time-resolved fluorescence (HTRF) kinase assay; settings: CDK4/CCND; x = IC50 >250 nM; read-out: CDK4/CCND IC50 (>250 nM column)
Chain of CDK4/CCND3 (P11802 whole entry): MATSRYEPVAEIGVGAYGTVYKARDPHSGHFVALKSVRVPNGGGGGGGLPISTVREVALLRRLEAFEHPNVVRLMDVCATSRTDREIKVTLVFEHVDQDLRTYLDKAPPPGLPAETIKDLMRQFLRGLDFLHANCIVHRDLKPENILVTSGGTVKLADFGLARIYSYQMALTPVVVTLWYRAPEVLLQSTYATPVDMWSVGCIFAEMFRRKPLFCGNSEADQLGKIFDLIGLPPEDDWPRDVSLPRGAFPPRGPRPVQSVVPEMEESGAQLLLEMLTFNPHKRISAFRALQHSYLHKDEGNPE
Chain of CDK4/CCND3 (P30281 whole entry partner): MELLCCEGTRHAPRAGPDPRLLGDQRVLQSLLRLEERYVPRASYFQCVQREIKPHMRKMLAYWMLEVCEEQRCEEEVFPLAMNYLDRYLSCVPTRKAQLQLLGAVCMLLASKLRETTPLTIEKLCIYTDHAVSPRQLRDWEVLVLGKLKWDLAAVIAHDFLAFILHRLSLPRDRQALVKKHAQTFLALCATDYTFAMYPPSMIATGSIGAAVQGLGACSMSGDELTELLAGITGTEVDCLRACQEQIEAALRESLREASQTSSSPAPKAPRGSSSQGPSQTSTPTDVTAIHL
Summary of the method: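 IC50 values were derived from 11-point half-log dilutions, usually starting at 10 μM. Compound was first held for 20 min at 23 °C with 1.5 nM CDK4/CCND3. 1 mM ATP and 50 nM ULight-eIF4E-BP1 (Thr37/46) substrate were then added for 60 min, and the TR-FRET 665 nm signal was measured after EDTA stop and Eu-anti-phospho-4E-BP1 detection.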

CDK6/CCND1 = CDK6/CCND1 (Homo sapiens, UniProt Q00534); assay: CDK6 homogeneous time-resolved fluorescence (HTRF) kinase assay; settings: CDK6/CCND
Chain of CDK6/CCND1 (Q00534 whole entry): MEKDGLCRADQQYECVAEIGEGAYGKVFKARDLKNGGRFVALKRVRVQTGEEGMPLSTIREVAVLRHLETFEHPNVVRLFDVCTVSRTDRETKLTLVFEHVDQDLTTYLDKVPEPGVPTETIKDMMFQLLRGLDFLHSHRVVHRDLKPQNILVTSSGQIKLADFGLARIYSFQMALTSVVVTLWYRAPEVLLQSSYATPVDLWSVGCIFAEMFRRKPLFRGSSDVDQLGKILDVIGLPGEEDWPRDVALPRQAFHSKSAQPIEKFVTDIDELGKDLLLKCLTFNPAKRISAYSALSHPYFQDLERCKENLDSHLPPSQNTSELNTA
Chain of CDK6/CCND1 (P24385 whole entry partner): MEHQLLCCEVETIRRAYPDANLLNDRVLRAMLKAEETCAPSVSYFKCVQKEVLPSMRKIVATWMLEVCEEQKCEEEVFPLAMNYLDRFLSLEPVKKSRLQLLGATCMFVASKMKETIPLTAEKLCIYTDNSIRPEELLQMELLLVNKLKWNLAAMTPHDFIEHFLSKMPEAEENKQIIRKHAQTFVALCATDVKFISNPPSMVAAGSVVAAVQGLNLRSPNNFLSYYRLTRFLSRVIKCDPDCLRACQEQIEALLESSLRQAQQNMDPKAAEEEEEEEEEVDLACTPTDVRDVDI
Summary of the method: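 Recombinant CDK6/CCND1 (1 nM final) was preincubated with compound for 20 min at 23 °C in HEPES buffer with MgCl2, EGTA, DTT and Tween 20. Kinase reaction then ran 60 min at 23 °C with 1 mM ATP and 50 nM ULight-4E-BP1 (Thr37/46) peptide, and was stopped with EDTA.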

[1] = x = IC50 25-250 nM, read-out: CDK2/CCNE IC50 (25-250 nM)
[2] = x = IC50 >250 nM, read-out: CDK6/CCND IC50 (>250 nM column)
[3] = x = IC50 <25 nM, read-out: CDK2/CCNE IC50 (<25 nM)
[4] = x = IC50 >250 nM, read-out: CDK2/CCNE IC50 (>250 nM column)
[5] = x = IC50 25-250 nM, read-out: CDK6/CCND IC50 (25-250 nM)

SMILES | IC50 (CDK2/CCNE1; [1]) | IC50 (CDK1/CCNB1) | IC50 (CDK4/CCND3) | IC50 (CDK6/CCND1; [2]) | IC50 (CDK2/CCNE1; [3]) | IC50 (CDK2/CCNE1; [4]) | IC50 (CDK6/CCND1; [5])
CS(=O)(=O)c1ccc(Nc2cc3c(C#Cc4cnc5ccc(Cl)nn45)nccc3cn2)cc1 [Ex 578, 5-((6-chloroimidazo[1,2-b]pyridazin-3-yl)ethynyl)-N-(4-(methylsulfonyl)phenyl)-2,6-naphthyridin-3-amine] | 25 to 250 nM | > 250 nM | > 250 nM | > 250 nM | – | – | –
COc1ncccc1C#Cc1nccc2cnc(Nc3ccc(S(C)(=O)=O)cc3)cc12 [Ex 579, 5-((2-methoxypyridin-3-yl)ethynyl)-N-(4-(methylsulfonyl)phenyl)-2,6-naphthyridin-3-amine] | 25 to 250 nM | > 250 nM | > 250 nM | > 250 nM | – | – | –
CS(=O)(=O)c1ccc(Nc2cc3c(C#Cc4ccnc(N)c4Cl)nccc3cn2)cc1 [Ex 580, 5-((2-amino-3-chloropyridin-4-yl)ethynyl)-N-(4-(methylsulfonyl)phenyl)-2,6-naphthyridin-3-amine] | – | > 250 nM | > 250 nM | > 250 nM | < 25 nM | – | –
Cc1ccc(C#Cc2nccc3cnc(Nc4ccc(S(C)(=O)=O)cc4)cc23)c(N)n1 [Ex 581, 5-((2-amino-6-methylpyridin-3-yl)ethynyl)-N-(4-(methylsulfonyl)phenyl)-2,6-naphthyridin-3-amine] | 25 to 250 nM | > 250 nM | > 250 nM | > 250 nM | – | – | –
Cc1cc(C#Cc2nccc3cnc(Nc4ccc(S(C)(=O)=O)cc4)cc23)n[nH]1 [Ex 582, 5-((5-methyl-1H-pyrazol-3-yl)ethynyl)-N-(4-(methylsulfonyl)phenyl)-2,6-naphthyridin-3-amine] | 25 to 250 nM | > 250 nM | > 250 nM | > 250 nM | – | – | –
CS(=O)(=O)c1ccc(Nc2cc3c(C#Cc4cccnc4O)nccc3cn2)cc1 [Ex 583, 3-((7-((4-(methylsulfonyl)phenyl)amino)-2,6-naphthyridin-1-yl)ethynyl)pyridin-2(1H)-one] | 25 to 250 nM | > 250 nM | > 250 nM | > 250 nM | – | – | –
CS(=O)(=O)c1ccc(Nc2cc3c(C#Cc4ccc(N)nc4)nccc3cn2)cc1 [Ex 584, 5-((6-aminopyridin-3-yl)ethynyl)-N-(4-(methylsulfonyl)phenyl)-2,6-naphthyridin-3-amine] | 25 to 250 nM | > 250 nM | > 250 nM | > 250 nM | – | – | –
COc1cncc(C#Cc2nccc3cnc(Nc4ccc(S(C)(=O)=O)cc4)cc23)n1 [Ex 585, 5-((6-methoxypyrazin-2-yl)ethynyl)-N-(4-(methylsulfonyl)phenyl)-2,6-naphthyridin-3-amine] | 25 to 250 nM | > 250 nM | > 250 nM | > 250 nM | – | – | –
COc1cc(C#Cc2nccc3cnc(Nc4ccc(S(C)(=O)=O)cc4)cc23)c(F)cn1 [Ex 586, 5-((5-fluoro-2-methoxypyridin-4-yl)ethynyl)-N-(4-(methylsulfonyl)phenyl)-2,6-naphthyridin-3-amine] | 25 to 250 nM | > 250 nM | > 250 nM | > 250 nM | – | – | –

Second part, the molecule after the results:

IC50 (CDK2/CCNE1; [1]) | IC50 (CDK1/CCNB1) | IC50 (CDK4/CCND3) | IC50 (CDK6/CCND1; [2]) | IC50 (CDK2/CCNE1; [3]) | IC50 (CDK2/CCNE1; [4]) | IC50 (CDK6/CCND1; [5]) | SMILES
– | > 250 nM | > 250 nM | > 250 nM | – | > 250 nM | – | COC(=O)c1nc(C#Cc2nccc3cnc(Nc4ccc(S(C)(=O)=O)cc4)cc23)cnc1N [Ex 588, methyl 3-amino-6-((7-((4-(methylsulfonyl)phenyl)amino)-2,6-naphthyridin-1-yl)ethynyl)pyrazine-2-carboxylate]
– | > 250 nM | > 250 nM | > 250 nM | – | > 250 nM | – | Cc1ccc(C#Cc2nccc3cnc(Nc4ccc(S(C)(=O)=O)cc4)cc23)cc1C#N [Ex 589, 2-methyl-5-((7-((4-(methylsulfonyl)phenyl)amino)-2,6-naphthyridin-1-yl)ethynyl)benzonitrile]
25 to 250 nM | > 250 nM | > 250 nM | > 250 nM | – | – | – | CC(C)(O)c1ccc(C#Cc2nccc3cnc(Nc4ccc(S(C)(=O)=O)cc4)cc23)cc1 [Ex 596, 2-(4-((7-((4-(methylsulfonyl)phenyl)amino)-2,6-naphthyridin-1-yl)ethynyl)phenyl)propan-2-ol]
25 to 250 nM | > 250 nM | > 250 nM | > 250 nM | – | – | – | Cc1cc2[nH]ncc2cc1-c1nccc2cnc(Nc3ccc(S(C)(=O)=O)cc3)cc12 [Ex 597, 5-(6-methyl-1H-indazol-5-yl)-N-(4-(methylsulfonyl)phenyl)-2,6-naphthyridin-3-amine]
– | > 250 nM | > 250 nM | > 250 nM | < 25 nM | – | – | CS(=O)(=O)c1ccc(Nc2cc3c(C#Cc4cccnc4N)nccc3cn2)cc1 [Ex 598, 5-((2-aminopyridin-3-yl)ethynyl)-N-(4-(methylsulfonyl)phenyl)-2,6-naphthyridin-3-amine]
– | > 250 nM | > 250 nM | – | < 25 nM | – | 25 to 250 nM | CS(=O)(=O)c1ccc(Nc2cc3c(-c4ccc5c(c4)C(=O)C(=O)N5)nccc3cn2)cc1 [Ex 600, 5-(7-((4-(methylsulfonyl)phenyl)amino)-2,6-naphthyridin-1-yl)indoline-2,3-dione]
25 to 250 nM | > 250 nM | > 250 nM | > 250 nM | – | – | – | CS(=O)(=O)c1ccc(Nc2cc3c(-c4ccc5[nH]ncc5c4)nccc3cn2)cc1 [Ex 601, 5-(1H-indazol-5-yl)-N-(4-(methylsulfonyl)phenyl)-2,6-naphthyridin-3-amine]
– | > 250 nM | > 250 nM | > 250 nM | < 25 nM | – | – | CS(=O)(=O)c1ccc(Nc2cc3c(C#Cc4ccc(O)cc4F)nccc3cn2)cc1 [Ex 602, 3-fluoro-4-((7-((4-(methylsulfonyl)phenyl)amino)-2,6-naphthyridin-1-yl)ethynyl)phenol]
25 to 250 nM | > 250 nM | > 250 nM | > 250 nM | – | – | – | CS(=O)(=O)c1ccc(Nc2cc3c(C#Cc4ccc5ncoc5c4)nccc3cn2)cc1 [Ex 604, 5-(benzo[d]oxazol-6-ylethynyl)-N-(4-(methylsulfonyl)phenyl)-2,6-naphthyridin-3-amine]
– | > 250 nM | > 250 nM | – | < 25 nM | – | 25 to 250 nM | COC(=O)c1n[nH]c2cc(-c3nccc4cnc(Nc5ccc(S(C)(=O)=O)cc5)cc34)ccc12 [Ex 605, methyl 6-(7-((4-(methylsulfonyl)phenyl)amino)-2,6-naphthyridin-1-yl)-1H-indazole-3-carboxylate]
– | > 250 nM | > 250 nM | > 250 nM | < 25 nM | – | – | CS(=O)(=O)c1ccc(Nc2cc3c(C#CC4CCN(CC(=O)O)CC4)nccc3cn2)cc1 [Ex 609, 2-(4-((7-((4-(methylsulfonyl)phenyl)amino)-2,6-naphthyridin-1-yl)ethynyl)piperidin-1-yl)acetic acid]
25 to 250 nM | > 250 nM | > 250 nM | > 250 nM | – | – | – | Cc1c(-c2nccc3cnc(Nc4ccc(S(C)(=O)=O)cc4)cc23)ccc2c1cnn2C(C)(C)C(N)=O [Ex 610, 2-methyl-2-(4-methyl-5-(7-((4-(methylsulfonyl)phenyl)amino)-2,6-naphthyridin-1-yl)-1H-indazol-1-yl)propanamide]
25 to 250 nM | > 250 nM | > 250 nM | > 250 nM | – | – | – | CS(=O)(=O)c1ccc(Nc2cc3c(C#Cc4cncc5[nH]ncc45)nccc3cn2)cc1 [Ex 611, 5-((1H-pyrazolo[3,4-c]pyridin-4-yl)ethynyl)-N-(4-(methylsulfonyl)phenyl)-2,6-naphthyridin-3-amine]
